Source: PMC5218480 (PLoS ONE, 2017)

System: MV-4-11 cells
Test: Gene expression microarray analysis (Affymetrix PrimeView) and GSEA
Type: cell-based, human
Design: RFU PODN (11730768_x_at) / Fold change /veh PODN (11730768_x_at) / RFU LINC00158 (11744669_a_at) / Fold change /veh LINC00158 (11744669_a_at) / RFU DUSP10 (11751237_a_at) / Fold change /veh DUSP10 (11751237_a_at) / RFU ID3 (11757404_x_at) / Fold change /veh ID3 (11757404_x_at) / RFU PLEKHG5 (11737974_s_at) / Fold change /veh PLEKHG5 (11737974_s_at) / RFU LRRC4B (11730491_at) / Fold change /veh LRRC4B (11730491_at) / RFU GIMAP4 (11747438_a_at) / Fold change /veh GIMAP4 (11747438_a_at) / RFU KRT8 (11758183_x_at) / Fold change /veh KRT8 (11758183_x_at) / RFU CNN1 (11734310_a_at) / Fold change /veh CNN1 (11734310_a_at) / RFU VPS37D (11726825_at) / Fold change /veh VPS37D (11726825_at) / RFU C10orf10 (11716522_x_at) / Fold change /veh C10orf10 (11716522_x_at) / RFU KIR2DL2 /// KIR2DL4 /// KIR2DL5A /// KIR2DL5B /// KIR2DS1 /// KIR2DS2 /// KIR2DS3 /// KIR2DS4 /// KIR3DL3 /// KIR3DL3 /// KIR3DS1 (11738374_at) / Fold change /veh KIR2DL2 /// KIR2DL4 /// KIR2DL5A /// KIR2DL5B /// KIR2DS1 /// KIR2DS2 /// KIR2DS3 /// KIR2DS4 /// KIR3DL3 /// KIR3DL3 /// KIR3DS1 (11738374_at) / RFU C1QL1 (11718748_at) / Fold change /veh C1QL1 (11718748_at) / RFU TMPRSS4 (11747572_a_at) / Fold change /veh TMPRSS4 (11747572_a_at) / RFU HAMP (11756126_x_at) / Fold change /veh HAMP (11756126_x_at) / RFU RNFT2 (11725882_a_at) / Fold change /veh RNFT2 (11725882_a_at) / RFU NR4A2 (11747474_a_at) / Fold change /veh NR4A2 (11747474_a_at) / RFU ABCC12 (11746883_a_at) / Fold change /veh ABCC12 (11746883_a_at) / RFU TMEM136 (11760407_x_at) / Fold change /veh TMEM136 (11760407_x_at) / RFU CLDN22 /// WWC2 (11732394_at) / Fold change /veh CLDN22 /// WWC2 (11732394_at) / RFU HLA-DPB1 (11760878_x_at) / Fold change /veh HLA-DPB1 (11760878_x_at) / RFU SPINT1 (11716480_a_at) / Fold change /veh SPINT1 (11716480_a_at) / RFU GAP43 (11754022_s_at) / Fold change /veh GAP43 (11754022_s_at) / RFU A4GNT (11735810_at) / Fold change /veh A4GNT (11735810_at) / RFU PRB3 (11715151_x_at) / Fold change /veh PRB3 (11715151_x_at) / RFU TUBB4B (11761932_at) / Fold change /veh TUBB4B (11761932_at) / RFU CAPN14 (11732068_a_at) / Fold change /veh CAPN14 (11732068_a_at) / RFU TMCC2 (11721928_a_at) / Fold change /veh TMCC2 (11721928_a_at) / RFU IRGQ (11745062_a_at) / Fold change /veh IRGQ (11745062_a_at) / RFU FAM174B (11720279_a_at) / Fold change /veh FAM174B (11720279_a_at) / RFU TMPRSS4 (11748680_a_at) / Fold change /veh TMPRSS4 (11748680_a_at) / RFU FAM212B (11763350_a_at) / Fold change /veh FAM212B (11763350_a_at) / RFU PLEKHG5 (11743358_a_at) / Fold change /veh PLEKHG5 (11743358_a_at) / RFU ZSCAN30 (11745921_a_at) / Fold change /veh ZSCAN30 (11745921_a_at) / RFU CMKLR1 (11741424_a_at) / Fold change /veh CMKLR1 (11741424_a_at) / RFU LOC101060620 /// MAPK8IP1 (11723275_at) / Fold change /veh LOC101060620 /// MAPK8IP1 (11723275_at) / RFU SPTSSB (11747773_x_at) / Fold change /veh SPTSSB (11747773_x_at) / RFU PRSS12 (11739890_at) / Fold change /veh PRSS12 (11739890_at) / RFU BIN1 (11741810_x_at) / Fold change /veh BIN1 (11741810_x_at) / RFU WNT11 (11732464_a_at) / Fold change /veh WNT11 (11732464_a_at) / RFU C10orf10 (11716521_a_at) / Fold change /veh C10orf10 (11716521_a_at) / RFU C5orf56 (11738089_at) / Fold change /veh C5orf56 (11738089_at) / RFU CYB561 (11721691_x_at) / Fold change /veh CYB561 (11721691_x_at) / RFU ANKRD19P (11752326_a_at) / Fold change /veh ANKRD19P (11752326_a_at) / RFU OR2T12 /// OR2T33 /// OR2T8 (11738714_s_at) / Fold change /veh OR2T12 /// OR2T33 /// OR2T8 (11738714_s_at) / RFU VCAN (11748164_a_at) / Fold change /veh VCAN (11748164_a_at) / RFU JSRP1 (11732532_at) / Fold change /veh JSRP1 (11732532_at) / RFU KRTAP10-11 (11738290_x_at) / Fold change /veh KRTAP10-11 (11738290_x_at) / RFU MYO3A (11730013_a_at) / Fold change /veh MYO3A (11730013_a_at) / RFU EBF3 (11725865_a_at) / Fold change /veh EBF3 (11725865_a_at) / RFU CAMK2N1 (11719241_x_at) / Fold change /veh CAMK2N1 (11719241_x_at) / RFU C5orf56 (11738088_a_at) / Fold change /veh C5orf56 (11738088_a_at) / RFU OLFML3 (11715873_a_at) / Fold change /veh OLFML3 (11715873_a_at) / RFU LOC100653217 /// NTM (11731650_a_at) / Fold change /veh LOC100653217 /// NTM (11731650_a_at) / RFU MAPK11 (11762145_a_at) / Fold change /veh MAPK11 (11762145_a_at) / RFU FIZ1 (11724087_x_at) / Fold change /veh FIZ1 (11724087_x_at) / RFU OASL (11726364_x_at) / Fold change /veh OASL (11726364_x_at) / RFU SOX15 (11748057_x_at) / Fold change /veh SOX15 (11748057_x_at) / RFU CD79A (11719716_a_at) / Fold change /veh CD79A (11719716_a_at) / RFU HIST1H1D (11736915_at) / Fold change /veh HIST1H1D (11736915_at) / RFU CASKIN2 (11723855_a_at) / Fold change /veh CASKIN2 (11723855_a_at) / RFU LOC730098 (11760151_x_at) / Fold change /veh LOC730098 (11760151_x_at) / RFU OR4N2 (11742367_at) / Fold change /veh OR4N2 (11742367_at) / RFU PRRT2 (11749266_a_at) / Fold change /veh PRRT2 (11749266_a_at) / RFU SNX32 (11753110_a_at) / Fold change /veh SNX32 (11753110_a_at) / RFU CDHR5 (11726645_a_at) / Fold change /veh CDHR5 (11726645_a_at) / RFU RCAN1 (11760418_a_at) / Fold change /veh RCAN1 (11760418_a_at) / RFU FAM167A (11723789_a_at) / Fold change /veh FAM167A (11723789_a_at) / RFU FAM26E (11764081_at) / Fold change /veh FAM26E (11764081_at) / RFU ISYNA1 (11749810_s_at) / Fold change /veh ISYNA1 (11749810_s_at) / RFU ACY1 (11761880_at) / Fold change /veh ACY1 (11761880_at) / RFU 11764098_at / Fold change /veh 11764098_at / RFU SAMD14 (11745864_x_at) / Fold change /veh SAMD14 (11745864_x_at) / RFU NPB (11741838_a_at) / Fold change /veh NPB (11741838_a_at) / RFU TMPRSS6 (11731388_a_at) / Fold change /veh TMPRSS6 (11731388_a_at) / RFU KRTAP10-2 (11738614_at) / Fold change /veh KRTAP10-2 (11738614_at) / RFU ARHGAP8 /// PRR5-ARHGAP8 (11727945_x_at) / Fold change /veh ARHGAP8 /// PRR5-ARHGAP8 (11727945_x_at) / RFU KRTAP5-7 /// NADSYN1 (11734609_at) / Fold change /veh KRTAP5-7 /// NADSYN1 (11734609_at) / RFU RASL12 (11751679_a_at) / Fold change /veh RASL12 (11751679_a_at) / RFU CDKN2B (11736163_a_at) / Fold change /veh CDKN2B (11736163_a_at) / RFU PRF1 (11729649_at) / Fold change /veh PRF1 (11729649_at) / RFU, ZNF638 /// ZNF638-IT1 / Fold change vs veh, ZNF638 /// ZNF638-IT1 / RFU, PANK3 / Fold change vs veh, PANK3 / RFU, SH3YL1 / Fold change vs veh, SH3YL1 / RFU, ZEB2 / Fold change vs veh, ZEB2 / RFU, NRIP1 / Fold change vs veh, NRIP1 / RFU, PTTG1IP / Fold change vs veh, PTTG1IP / RFU, CAPN2 / Fold change vs veh, CAPN2 / RFU, MED14 / Fold change vs veh, MED14 / RFU, SNORA58 / Fold change vs veh, SNORA58 / RFU, C1orf63 / Fold change vs veh, C1orf63 / RFU, LRRFIP1 / Fold change vs veh, LRRFIP1 / RFU, NDUFAF7 / Fold change vs veh, NDUFAF7 / RFU, SLC12A2 / Fold change vs veh, SLC12A2 / RFU, IBTK / Fold change vs veh, IBTK / RFU, ESF1 / Fold change vs veh, ESF1 / Fold change vs veh, TMEM50B / RFU, TAOK1 / Fold change vs veh, TAOK1 / RFU, ACBD3 / Fold change vs veh, ACBD3 / RFU, TMA16 / Fold change vs veh, TMA16 / RFU, RWDD3 / Fold change vs veh, RWDD3 / RFU, BCAT1 / Fold change vs veh, BCAT1 / RFU, EDEM3 / Fold change vs veh, EDEM3 / RFU, TMEM33 / Fold change vs veh, TMEM33 / RFU, WDR75 / Fold change vs veh, WDR75 / RFU, AHCTF1 / Fold change vs veh, AHCTF1 / RFU, TFRC / Fold change vs veh, TFRC / RFU, ZDHHC17 / Fold change vs veh, ZDHHC17 / RFU, NOM1 / Fold change vs veh, NOM1 / RFU, ARL8B / Fold change vs veh, ARL8B / RFU, ZBTB11 / Fold change vs veh, ZBTB11 / RFU, TAMM41 / Fold change vs veh, TAMM41 / RFU, KIAA1704 /// LOC100996395 / Fold change vs veh, KIAA1704 /// LOC100996395 / RFU, ING1 / Fold change vs veh, ING1 / RFU, TRMT61B / Fold change vs veh, TRMT61B / RFU, FUBP3 / Fold change vs veh, FUBP3 / RFU, TP53 / Fold change vs veh, TP53 / RFU, TNKS2 / Fold change vs veh, TNKS2 / RFU, ZFP14 / Fold change vs veh, ZFP14 / RFU, ACTR2 / Fold change vs veh, ACTR2 / RFU, PPP3R1 / Fold change vs veh, PPP3R1 / RFU, PIK3R1 / Fold change vs veh, PIK3R1 / RFU, HNRNPA1 / Fold change vs veh, HNRNPA1 / RFU, RNF170 / Fold change vs veh, RNF170 / RFU, ZNF28 / Fold change vs veh, ZNF28 / RFU, RNGTT / Fold change vs veh, RNGTT / RFU, OGT / Fold change vs veh, OGT / RFU, BRD1 / Fold change vs veh, BRD1 / RFU, MARS / Fold change vs veh, MARS / RFU, ZNF655 / Fold change vs veh, ZNF655 / RFU, FAHD1 / Fold change vs veh, FAHD1 / RFU, BDP1 / Fold change vs veh, BDP1 / RFU, LRRCC1 / Fold change vs veh, LRRCC1 / RFU, ARID1A / Fold change vs veh, ARID1A / RFU, ZNF146 / Fold change vs veh, ZNF146 / RFU, ZNF330 / Fold change vs veh, ZNF330 / RFU, GPN3 / Fold change vs veh, GPN3 / RFU, C9orf123 / Fold change vs veh, C9orf123 / RFU, N4BP2L2 / Fold change vs veh, N4BP2L2 / RFU, ARFIP1 / Fold change vs veh, ARFIP1 / RFU, FAM179B / Fold change vs veh, FAM179B / RFU, BCL10 / Fold change vs veh, BCL10 / RFU, UHRF1BP1L / Fold change vs veh, UHRF1BP1L / RFU, BET1 / Fold change vs veh, BET1 / RFU, CNOT2 / Fold change vs veh, CNOT2 / RFU, ZNF268 / Fold change vs veh, ZNF268 / Fold change vs veh, ZNF507 / RFU, DGCR2 / Fold change vs veh, DGCR2 / RFU, WDSUB1 / Fold change vs veh, WDSUB1 / Fold change vs veh, HSP90B1 /// MIR3652 / RFU, ADSS / Fold change vs veh, ADSS / RFU, GK / Fold change vs veh, GK / RFU, ZNF148 / Fold change vs veh, ZNF148 / RFU, TAF9 / Fold change vs veh, TAF9 / RFU, SLC1A5 / Fold change vs veh, SLC1A5 / RFU, SLMO2 / Fold change vs veh, SLMO2 / RFU, ABCC4 / Fold change vs veh, ABCC4 / RFU, LOC101060439 /// RAP1B / Fold change vs veh, LOC101060439 /// RAP1B / RFU, RFX7 / Fold change vs veh, RFX7 / RFU, GTPBP10 / Fold change vs veh, GTPBP10 / RFU, CNEP1R1 / Fold change vs veh, CNEP1R1 / RFU, BIVM-ERCC5 /// ERCC5 / Fold change vs veh, BIVM-ERCC5 /// ERCC5 / RFU, ILF3 / Fold change vs veh, ILF3 / RFU 11762660_at / Fold change /veh 11762660_at / RFU VCAN (11757783_s_at) / Fold change /veh VCAN (11757783_s_at) / RFU DDX43 (11728927_at) / Fold change /veh DDX43 (11728927_at) / RFU KRT8 (11758188_x_at) / Fold change /veh KRT8 (11758188_x_at) / RFU NKD1 (11759106_at) / Fold change /veh NKD1 (11759106_at) / RFU SRD5A1 (11742802_a_at) / Fold change /veh SRD5A1 (11742802_a_at) / RFU TPSAB1 /// TPSB2 (11721975_s_at) / Fold change /veh TPSAB1 /// TPSB2 (11721975_s_at) / RFU GSTM3 (11746129_a_at) / Fold change /veh GSTM3 (11746129_a_at) / RFU IL23R (11737362_x_at) / Fold change /veh IL23R (11737362_x_at) / RFU TMEM51 (11727254_a_at) / Fold change /veh TMEM51 (11727254_a_at) / RFU PIWIL2 (11732686_x_at) / Fold change /veh PIWIL2 (11732686_x_at) / RFU ORM1 (11744905_x_at) / Fold change /veh ORM1 (11744905_x_at) / RFU CCDC152 (11743942_at) / Fold change /veh CCDC152 (11743942_at) / RFU ECM1 (11717891_a_at) / Fold change /veh ECM1 (11717891_a_at) / RFU IL23R (11748794_a_at) / Fold change /veh IL23R (11748794_a_at) / RFU TNFAIP8L3 (11732012_x_at) / Fold change /veh TNFAIP8L3 (11732012_x_at) / RFU MBOAT4 (11741988_at) / Fold change /veh MBOAT4 (11741988_at) / RFU 11764193_at / Fold change /veh 11764193_at / RFU TMEM53 (11763286_at) / Fold change /veh TMEM53 (11763286_at) / RFU MAGEB2 (11727129_at) / Fold change /veh MAGEB2 (11727129_at) / RFU TMEM200A (11744735_a_at) / Fold change /veh TMEM200A (11744735_a_at) / RFU CCDC152 (11751479_a_at) / Fold change /veh CCDC152 (11751479_a_at) / RFU FAM211A (11726209_a_at) / Fold change /veh FAM211A (11726209_a_at) / RFU RGS16 (11746705_a_at) / Fold change /veh RGS16 (11746705_a_at) / RFU VCAN (11755009_s_at) / Fold change /veh VCAN (11755009_s_at) / RFU RHOB (11743442_s_at) / Fold change /veh RHOB (11743442_s_at) / RFU RGS16 (11720943_a_at) / Fold change /veh RGS16 (11720943_a_at) / RFU RGS16 (11720944_at) / Fold change /veh RGS16 (11720944_at) / RFU, VPS4B / Fold change vs veh, VPS4B / RFU, CREB1 / Fold change vs veh, CREB1 / RFU, DNAJC13 / Fold change vs veh, DNAJC13 / RFU, GNAQ / Fold change vs veh, GNAQ / RFU, CDK5R1 / Fold change vs veh, CDK5R1 / RFU, ZRANB3 / Fold change vs veh, ZRANB3 / RFU, CUL4A / Fold change vs veh, CUL4A / RFU, CCNY / Fold change vs veh, CCNY / RFU, UFL1 / Fold change vs veh, UFL1 / RFU, COG3 / Fold change vs veh, COG3 / RFU, DIAPH2 / Fold change vs veh, DIAPH2 / RFU, SKA2 / Fold change vs veh, SKA2 / RFU, AFF3 / Fold change vs veh, AFF3 / RFU, LMF1 / Fold change vs veh, LMF1 / RFU, IPO11 / Fold change vs veh, IPO11 / RFU, DFFB / Fold change vs veh, DFFB / RFU, FOXP1 / Fold change vs veh, FOXP1 / RFU, CARD8 / Fold change vs veh, CARD8 / RFU, STRN3 / Fold change vs veh, STRN3 / RFU, ADK / Fold change vs veh, ADK / RFU, RASSF2 / Fold change vs veh, RASSF2 / RFU, WIPF1 / Fold change vs veh, WIPF1 / RFU, LARP1B / Fold change vs veh, LARP1B / RFU, RASA1 / Fold change vs veh, RASA1 / RFU, RB1 / Fold change vs veh, RB1 / RFU, PPFIA1 / Fold change vs veh, PPFIA1 / RFU, MAT2A / Fold change vs veh, MAT2A / RFU, CCT5 / Fold change vs veh, CCT5 / RFU, WDR92 / Fold change vs veh, WDR92 / RFU, CUX1 / Fold change vs veh, CUX1 / RFU, TTC7A / Fold change vs veh, TTC7A / RFU, TMEM135 / Fold change vs veh, TMEM135 / RFU, DEPTOR / Fold change vs veh, DEPTOR / RFU, CPM / Fold change vs veh, CPM / RFU, DNAJB6 / Fold change vs veh, DNAJB6 / RFU, CACNA2D3 / Fold change vs veh, CACNA2D3 / RFU, DTX4 / Fold change vs veh, DTX4 / RFU, TFCP2 / Fold change vs veh, TFCP2 / RFU, GMCL1 /// GMCL1P1 / Fold change vs veh, GMCL1 /// GMCL1P1 / RFU, AEBP2 / Fold change vs veh, AEBP2 / RFU, SNHG1 /// SNORD22 /// SNORD25 /// SNORD26 /// SNORD27 /// SNORD28 /// SNORD29 /// SNORD31 / Fold change vs veh, SNHG1 /// SNORD22 /// SNORD25 /// SNORD26 /// SNORD27 /// SNORD28 /// SNORD29 /// SNORD31 / Fold change (Aza/veh), C12orf56 (ProbeSet 11735607_a_at) / Fold change (ACY-1035/veh), C12orf56 (ProbeSet 11735607_a_at) / Fold change (Aza/veh), FGFR1OP (ProbeSet 11751329_s_at) / Fold change (ACY-1035/veh), FGFR1OP (ProbeSet 11751329_s_at) / Fold change (Aza/veh), VPS36 (ProbeSet 11739960_a_at) / Fold change (ACY-1035/veh), VPS36 (ProbeSet 11739960_a_at) / RFU SYPL1 (11715823_x_at) / Fold change /veh SYPL1 (11715823_x_at) / RFU IGFBP7 (11715501_s_at) / Fold change /veh IGFBP7 (11715501_s_at) / RFU REEP3 (11722064_at) / Fold change /veh REEP3 (11722064_at) / RFU IGLL1 (11728026_x_at) / Fold change /veh IGLL1 (11728026_x_at): dose or concentration left out as unconfirmed
Details: MV-4-11 cells, 48 hours

SMILES: Nc1ncn([C@@H]2O[C@H](CO)[C@@H](O)[C@H]2O)c(=O)n1 [azacitidine]
- RFU VPS37D (11726825_at): 18.02 RFU
